From US11925622B2, “Role of novel carbazole linked 1, 2, 3- triazole analogs in alleviating methylglyoxal-mediated late diabetic vascular complications” (priority 2021, dated 2024)
Where “and” joins values, the source holds several entries; their conditions need not be identical. Equal values may be shown once.

What was measured:
[1] = tested on: MGO-mediated BSA glycation; assay: In vitro antiglycation activity, MGO-BSA glycation assay (fluorescence); format: biochemical, bovine; conditions: for IC50 / % inhibition of MGO-BSA glycation: BSA 10 mg/mL, MGO 0.1 M, 24 h, 37° C.; for IC50: read-out: IC50 antiglycation, MGO-BSA model; for % inhibition of MGO-BSA glycation: compounds at 1 mM
Experimental: In vitro antiglycation activity: The MGO-BSA assay was performed as per optimized protocol of Jahan, H. et al with slight modifications. Initially, the antiglycation activity of parent compound carbazole (1), and carbazole-linked 1,2,3 triazoles 2-16 were identified at 1 mM using MGO-BSA model. […] BSA (10 mg/mL) incubated with MGO (0.1 M) for 24 h at 37° C. using phosphate-azide buffer (0.1 mM), served as a positive control. The wells with BSA only were taken as negative control. Whereas, rutin and quercetin were used as standard antiglycation agents. After 24 h of incubation, the fluorescence of each well was measured by using microplate reader (Varioskan lux, Thermo Fisher Scientific, 319 Scientific, USA) at 355 nm excitation, and 460 nm emission.
The % inhibition of MGO-BSA-mediated by carbazole-triazole derivatives was quantified by using the following formula: […]
The IC50 of active antiglycation compounds were identified by using EZ-FIT Enzyme Kinetics Program (Perrella Scientific Inc., Amherst, USA).

[2] = tested on: MGO-AGEs-induced ROS in THP-1 monocytes; assay: Anti-oxidation activity, DCFH-DA assay of MGO-AGEs-mediated ROS in monocytes; format: cell-based, human; conditions: for ROS (DCF fluorescence) in MGO-AGEs-treated monocytes: 100 μM (maximum inhibition), MGO-AGEs 50 μg/mL, 24 h; for antioxidant activity / ROS production inhibition (in words): MGO-AGEs 50 μg/mL-treated THP-1 monocytes
Experimental: Anti-oxidation activity: The measurement of effect of derivatives on AGEs-mediated ROS was based on the previously reported protocol of Soumyarani and colleagues with slight amendments. Initially, 1×10^6 monocytes/mL were loaded in sterile 96-well flat bottom black fluorescent plate, and pre-incubated with DCFH-DA (10 μM; Sigma-Aldrich Chemical Corporation, St. Louis, Missouri, USA) for 45 min at 37° C. Followed by the incubation, antiglycating, non-toxic carbazole-linked triazole derivatives (10, 30, 50, and 100 μM) were added to the wells for 1 h before co-treatment of cells with MGO-AGEs (50 μg/mL) for next 24 h. Next, the fluorometric measurement of converted DCFH into oxidized DCF product was carried out via spectrofluorimeter (Varioskanmicroplate reader, Thermo Fisher Scientific, USA) using 485 nm excitation and 520 nm emission wavelengths. Various controls were plated in each experiment. Wells containing culture RPMI with MGO-AGEs (50 μg/mL) and H2O2 ([…]) served as positive controls, while cells containing BSA were taken as negative control.

[3] = tested on: NF-κB (p65) translocation in monocytes; assay: NF-κB (p65) translocation analysis by immunocytochemistry; format: cell-based, human; conditions: compounds 100 μM, 1 h pre-incubation; AGEs 50 μg/mL 1 h; MGO-AGEs control 75 RFU, BSA 11 RFU
Experimental: NF-κB (p^65) translocation analysis: The monocytes at the density of 1×10^6 cells/mL were pre-incubated with compounds (100 μM) for an h, and then co-incubated with AGEs (50 μg/mL) for another 1 h in a 24-well plate at 37° C. Following treatment, cells were fixed with paraformaldehyde (4% PFA; 10 min), and permeabilized with Triton X-100 (0.2%; 10 min). Next, the cells were rinsed with chilled PBS three times, and incubated with bovine serum albumin (1% BSA; 1 h) to block the non-specific binding sites. Cells were exposed to primary antibody against NF-κB (p 65) (1:300 dilution, Thermo Fisher Scientific, Waltham, MA, USA) for overnight at 4° C. Subsequently followed by washing the cells with chilled PBS three times, secondary antibody (polyclonal fluorescein isothiocyanate (FITC)-conjugated antibody) to rabbit IgG (1:1000 dilution, Abeam, Cambridge, UK) was used.
Nuclei were counterstained by using DAPI (Thermo Fisher Scientific, Waltham, MA, USA). The BSA-treated monocytes (50 μg/mL) had served as a negative control, while AGEs-treated monocytes (50 μg/mL) as positive control. All the images were taken by using Nikon microscope (Nikon, Tokyo, Japan). The quantification of images was carried out via ImageJ (Image processing and analysis in Java-NIH).

[4] = tested on: COX-2; assay: COX-2 protein levels analysis by immunoblotting; format: cell-based; conditions: human monocytes co-treated with MGO-AGEs 50 μg/mL; immunoblot densitometry
Experimental: COX-2 protein levels analysis: The 50 μg/mL of protein was loaded onto 10% sodium dodecyl sulfate-polymerized acrylamide gel electrophoresis (SDS-PAGE), and transferred to nitrocellulose membranes using power blotter XL System (Invitrogen; Thermo Fisher Scientific). Subsequently, the membrane was incubated for 1 h in 1% bovine serum albumin in PBS with 0.1% Tween-20 to block unspecified binding. The protein bands of the membrane were probed with primary monoclonal antibody COX-2 (Thermo Fisher Scientific, Waltham, MA, USA), and B-actin (Cloud-Clone Corp., Wuhan, China) for overnight at 4° C. Following incubation, the membrane was rinsed with tris buffer saline tween (TBST) three times, and then exposed to secondary antibody (HRP mouse mono anti-rabbit IgG; Abeam, Cambridge, UK) at room temperature for an hour. The washing was again carried three times with TBST, and then the membrane was exposed to ECL (Sangon biotech, Shanghai, China) to visualize the bands in Western Blot Detection System (Thermo Fisher Scientific, Waltham, MA, USA). The densitometry of immuno-positive COX-2, and β-actin bands was used by Image J.

[5] = tested on: PGE2; assay: PGE2 levels analysis by ELISA in THP-1 culture supernatants; format: cell-based, human; conditions: THP-1, compounds 1 h, then AGEs 50 μg/mL
Experimental: PGE2 levels analysis: ELISA-based method was employed to identify the concentration of PGE2 in culture supernatants of THP-1 cells that was initially exposed with compounds for 1 h, and then stimulated with AGEs (50 μg/mL). All the steps were followed according to the manufacturer's protocols.

| IC50 [1] [µM] | SMILES | antiglycation activity in MGO-BSA model (in words) [1] | % inhibition of MGO-BSA glycation [1] [%] | ROS (DCF fluorescence) in MGO-AGEs-treated monocytes [2] [RFU] | antioxidant activity / ROS production inhibition (in words) [2] | NF-κB translocation in MGO-AGEs-treated monocytes [3] [RFU] | reduction in COX-2 levels compared to MGO-BSA-treated cells [4] | effect on PGE2 levels (in words) [5] |
| --- | --- | --- | --- | --- | --- | --- | --- | --- |
| 135 ± 5 | Cc1ncc([N+](=O)[O-])n1CCn1cc(Cn2c3ccccc3c3ccccc32)nn1 [Compound 13, 9-((1-(2-(2-Methyl-5-nitro-1H-imidazol-1-yl)ethyl)-1H1,2,3-triazol-4-yl)methyl)-9H-carbazole] | good activity | 77.8 | 8.75 | excellent ROS production inhibition | 54 | – | reduced PGE2 levels significantly |
| – | N.S=C(S)N1CCCC1 [PDTC, reference compound] | – | – | 7.84 | – | 45 | 1.60 fold | relatively more suppression than quercetin |
| 104 ± 2 | C[C@@H]1O[C@@H](OC[C@H]2O[C@@H](Oc3c(-c4ccc(O)c(O)c4)oc4cc(O)cc(O)c4c3=O)[C@H](O)[C@@H](O)[C@@H]2O)[C@H](O)[C@H](O)[C@H]1O [Rutin, 2-(3,4-Dihydroxyphenyl)-5,7-dihydroxy-4-oxo-4H-chromen-3-yl 6-O-(6-deoxy-alpha-L-mannopyranosyl)-beta-D-glucopyranoside, reference compound] | – | 67 | 7.44 | – | 43 | 1.65 fold | relatively more suppression than quercetin |

| SMILES | IC50 [1] [µM] | antiglycation activity in MGO-BSA model (in words) [1] | % inhibition of MGO-BSA glycation [1] [%] | ROS (DCF fluorescence) in MGO-AGEs-treated monocytes [2] [RFU] | antioxidant activity / ROS production inhibition (in words) [2] | NF-κB translocation in MGO-AGEs-treated monocytes [3] [RFU] | reduction in COX-2 levels compared to MGO-BSA-treated cells [4] | effect on PGE2 levels (in words) [5] |
| --- | --- | --- | --- | --- | --- | --- | --- | --- |
| O=C(Cn1cc(Cn2c3ccccc3c3ccccc32)nn1)c1ccc([N+](=O)[O-])cc1 [Compound 12, 2-(4-((9H-Carbazole-9-yl)methyl)-1H-1,2,3-triazole-1-y1)-1-(4-nitrophenyl)ethan-1-one] | 76.1 ± 6 | excellent antiglycation activity | 83.7 | 6.32 | excellent ROS production inhibition | 33 | 2.11 fold and 3 fold | reduced PGE2 levels significantly |
